Results as given in ChEMBL document CHEMBL4339249, “Antimicrobial Dolabellanes and Atranones from a Marine-Derived Strain of the Toxigenic Fungus Stachybotrys chartarum” (2019).
Active and inactive are the calls of the source. The calls are words filed in the database; no cut-off is given here.

What was measured:
Candida albicans [1] = assay: Antimicrobial activity against Candida albicans ATCC 10231 assessed as inhibition of microbial growth incubated for 16 hrs by broth microdilution method; format: functional; details: ATCC 10231, 16 h
Escherichia coli = assay: Antimicrobial activity against ESBL-producing Escherichia coli ATCC 35218 assessed as inhibition of microbial growth incubated for 16 hrs by broth microdilution method; format: functional; details: ATCC 35218, 16 h
Acinetobacter baumannii = assay: Antimicrobial activity against Acinetobacter baumannii ATCC 19606 assessed as inhibition of microbial growth incubated for 16 hrs by broth microdilution method; format: functional; details: ATCC 19606, 16 h
Pseudomonas aeruginosa = assay: Antimicrobial activity against Pseudomonas aeruginosa ATCC 15442 assessed as inhibition of microbial growth incubated for 16 hrs by broth microdilution method; format: functional; details: ATCC 15442, 16 h
Klebsiella pneumoniae = assay: Antimicrobial activity against Klebsiella pneumoniae ATCC 700603 assessed as inhibition of microbial growth incubated for 16 hrs by broth microdilution method; format: functional; details: Klebsiella pneumoniae, 700603, 16 h
Staphylococcus aureus = assay: Antimicrobial activity against methicillin-resistant Staphylococcus aureus ATCC 43300 assessed as inhibition of microbial growth incubated for 16 hrs by broth microdilution method; format: functional; details: ATCC 43300, 16 h
Enterococcus faecalis = assay: Antimicrobial activity against Enterococcus faecalis ATCC 29212 assessed as inhibition of microbial growth incubated for 16 hrs by broth microdilution method; format: functional; details: ATCC 29212, 16 h
Candida albicans [2] = assay: Induction of morphological changes in Candida albicans ATCC 10231 assessed as induction of agglutination in cytoplasm at 8 ug/ml incubated for 12 hrs by transmission electron microscopy; format: functional, organism-based
Candida albicans [3] = assay: Induction of morphological changes in Candida albicans ATCC 10231 assessed as induction of cell wall thinning at 8 ug/ml incubated for 12 hrs by transmission electron microscopy; format: functional, organism-based
Candida albicans [4] = assay: Induction of morphological changes in Candida albicans ATCC 10231 assessed as induction of deformed cells at 8 ug/ml incubated for 12 hrs by transmission electron microscopy; format: functional, organism-based
Candida albicans [5] = assay: Induction of morphological changes in Candida albicans ATCC 10231 assessed as induction of wrinkled cells at 8 ug/ml incubated for 12 hrs by transmission electron microscopy; format: functional, organism-based
Candida albicans [6] = assay: Induction of morphological changes in Candida albicans ATCC 10231 assessed as induction of irregular cell shape at 8 ug/ml incubated for 12 hrs by transmission electron microscopy; format: functional, organism-based
Candida albicans [7] = assay: Induction of morphological changes in Candida albicans ATCC 10231 assessed as induction of cell wall deformation at 16 ug/ml incubated for 12 hrs by transmission electron microscopy; format: functional, organism-based
Candida albicans [8] = assay: Induction of morphological changes in Candida albicans ATCC 10231 assessed as induction of cell membrane deformation at 16 ug/ml incubated for 12 hrs by transmission electron microscopy; format: functional, organism-based
Candida albicans [9] = assay: Induction of morphological changes in Candida albicans ATCC 10231 assessed as induction of vacuoles formation in cytoplasm at 16 ug/ml incubated for 12 hrs by transmission electron microscopy; format: functional, organism-based
Candida albicans [10] = assay: Induction of morphological changes in Candida albicans ATCC 10231 assessed as induction of cell contents leakage at 16 ug/ml incubated for 12 hrs by transmission electron microscopy; format: functional, organism-based

| Compound | MIC (Candida albicans [1]) [µg/mL] | MIC (Escherichia coli) [µg/mL] | MIC (Acinetobacter baumannii) [µg/mL] | MIC (Pseudomonas aeruginosa) [µg/mL] | MIC (Klebsiella pneumoniae) [µg/mL] | MIC (Staphylococcus aureus) [µg/mL] | MIC (Enterococcus faecalis) [µg/mL] | Activity (Candida albicans [2]) | Activity (Candida albicans [3]) | Activity (Candida albicans [4]) | Activity (Candida albicans [5]) | Activity (Candida albicans [6]) | Activity (Candida albicans [7]) | Activity (Candida albicans [8]) | Activity (Candida albicans [9]) | Activity (Candida albicans [10]) |
| --- | --- | --- | --- | --- | --- | --- | --- | --- | --- | --- | --- | --- | --- | --- | --- | --- |
| OC(Cn1cncn1)(Cn1cncn1)c1ccc(F)cc1F [FLUCONAZOLE] | 1 | – | – | – | – | – | – | – | – | – | – | – | – | – | – | – |
| C/C1=C\[C@H](O)C[C@]2(C)O[C@H]2C[C@@]2(C)OC(=O)C=C(C(C)C)[C@@H]2CC1 | ≥ 100 | ≥ 100 | 16 | ≥ 100 | ≥ 100 | ≥ 100 | ≥ 32 | – | – | – | – | – | – | – | – | – |
| C/C1=C\[C@H](O)C[C@]2(C)O[C@H]2C[C@@]2(C)C(=O)C=C(C(C)C)[C@@H]2CC1 | ≥ 100 | ≥ 100 | ≥ 100 | ≥ 100 | ≥ 100 | ≥ 100 | ≥ 100 | – | – | – | – | – | – | – | – | – |
| NCC[C@H](O)C(=O)N[C@@H]1C[C@H](N)[C@@H](O[C@H]2O[C@H](CN)[C@@H](O)[C@H](O)[C@H]2O)[C@H](O)[C@H]1O[C@H]1O[C@H](CO)[C@@H](O)[C@H](N)[C@H]1O [AMIKACIN] | – | 4 | 2 | 2 | 8 | – | – | – | – | – | – | – | – | – | – | – |
| CO/N=C(\C(=O)N[C@@H]1C(=O)N2C(C(=O)O)=C(CSc3nc(=O)c(O)nn3C)CS[C@H]12)c1csc(N)n1 [CEFTRIAXONE] | – | 8 | 8 | 2 | 2 | – | – | – | – | – | – | – | – | – | – | – |
| COC(=O)[C@H]1[C@H](C)O[C@@]2(O)[C@H](C)CC[C@@]3(C)OC(=O)C=C(C(C)C)[C@@H]3C[C@H](O)/C(C)=C/[C@H]12 | ≥ 100 | ≥ 100 | ≥ 100 | ≥ 100 | ≥ 100 | ≥ 100 | ≥ 100 | – | – | – | – | – | – | – | – | – |
| CC(=O)C[C@H]1/C=C(\C)[C@@H](O)C[C@H]2C(C(C)C)=CC(=O)O[C@]2(C)CC[C@@H](C)C1=O | 8 | ≥ 100 | ≥ 100 | ≥ 100 | ≥ 100 | 32 | 16 | Active | Active | Active | Active | Active | Active | Active | Active | Active |
| C/C1=C\[C@H]2/C(=C(/C)CC[C@@]3(CO)C(=O)C=C(C(C)C)[C@@H]3CC1)OC(=O)[C@@H]2[C@H](C)O | ≥ 100 | ≥ 100 | ≥ 100 | ≥ 100 | ≥ 100 | ≥ 100 | ≥ 100 | – | – | – | – | – | – | – | – | – |
| C/C1=C\[C@H](O)[C@H](O)C/C(C)=C/[C@@]2(C)OC(=O)C=C(C(C)C)[C@@H]2CC1 | ≥ 100 | ≥ 100 | ≥ 100 | ≥ 100 | ≥ 100 | ≥ 100 | ≥ 100 | – | – | – | – | – | – | – | – | – |
| CN[C@H](CC(C)C)C(=O)N[C@H]1C(=O)N[C@@H](CC(N)=O)C(=O)N[C@H]2C(=O)N[C@H]3C(=O)N[C@H](C(=O)N[C@H](C(=O)O)c4cc(O)cc(O)c4-c4cc3ccc4O)[C@H](O)c3ccc(c(Cl)c3)Oc3cc2cc(c3O[C@@H]2O[C@H](CO)[C@@H](O)[C@H](O)[C@H]2O[C@H]2C[C@](C)(N)[C@H](O)[C@H](C)O2)Oc2ccc(cc2Cl)[C@H]1O [VANCOMYCIN] | – | – | – | – | – | – | 0.5 | – | – | – | – | – | – | – | – | – |
